ChEMBL document CHEMBL3992542, “Synthesis of cholesteryl doxorubicin and its anti-cancer activity” (Bioorg Med Chem Lett, 2017)
Calls of active or inactive are those of the source. The rule behind the calls is not given here.

Key:
[1] = tested on: MDA-MB-231; test: Cytotoxicity against human MDA-MB-231 cells assessed as decrease in cell viability at 10 uM treated for 2 hrs measured after 48 hrs by MTT assay; assay type: functional, cell-based
[2] = tested on: HeLa; test: Cytotoxicity against human HeLa cells assessed as decrease in cell viability at 5 uM treated for 2 hrs measured after 48 hrs by MTT assay; assay type: functional, cell-based
[3] = tested on: MCF7; test: Cytotoxicity against human MCF7 cells assessed as decrease in cell viability at 5 uM treated for 2 hrs measured after 48 hrs by MTT assay; assay type: functional, cell-based
[4] = tested on: A549; test: Cytotoxicity against human A549 cells assessed as decrease in cell viability at 10 uM treated for 2 hrs measured after 48 hrs by MTT assay; assay type: functional, cell-based
[5] = tested on: HeLa; test: Cytotoxicity against human HeLa cells assessed as decrease in cell viability treated for 2 hrs measured after 48 hrs by MTT assay; assay type: functional, cell-based
[6] = Drug uptake in human MDA-MB-231 cells at 5 uM after 24 hrs by flow cytometric analysis; assay type: ADME, cell-based; conditions: mda-mb-231, 24 h
[7] = tested on: A549; test: Cytotoxicity against human A549 cells assessed as decrease in cell viability treated for 2 hrs measured after 48 hrs by MTT assay; assay type: functional, cell-based
[8] = Drug uptake in human HeLa cells at 5 uM after 24 hrs by flow cytometric analysis; assay type: ADME, cell-based
[9] = tested on: MCF7; test: Cytotoxicity against human MCF7 cells assessed as decrease in cell viability treated for 2 hrs measured after 48 hrs by MTT assay; assay type: functional, cell-based
[10] = tested on: MDA-MB-231; test: Cytotoxicity against human MDA-MB-231 cells assessed as decrease in cell viability treated for 2 hrs measured after 48 hrs by MTT assay; assay type: functional, cell-based
[11] = Drug uptake in nucleus of human MDA-MB-231 cells at 5 uM after 2 hrs by fluorescence microscopic method; assay type: ADME
[12] = Drug uptake in nucleus of human HeLa cells at 5 uM after 24 hrs by fluorescence microscopic method; assay type: ADME, cell-based
[13] = Drug uptake in nucleus of human A549 cells at 5 uM after 2 hrs by fluorescence microscopic method; assay type: ADME, cell-based; conditions: a549, 2 h
[14] = Drug uptake in nucleus of human HeLa cells at 5 uM after 2 hrs by fluorescence microscopic method; assay type: ADME, cell-based
[15] = Drug uptake in human HeLa cells at 5 uM after 2 hrs by flow cytometric analysis; assay type: ADME, cell-based
[16] = Drug uptake in nucleus of human MDA-MB-231 cells at 5 uM after 24 hrs by fluorescence microscopic method; assay type: ADME
[17] = Drug uptake in human MDA-MB-231 cells at 5 uM after 2 hrs by flow cytometric analysis; assay type: ADME, cell-based; conditions: mda-mb-231, 2 h
[18] = Drug uptake in nucleus of human A549 cells at 5 uM after 24 hrs by fluorescence microscopic method; assay type: ADME, cell-based; conditions: a549, 24 h
[19] = Drug uptake in cytoplasm of human A549 cells at 5 uM after 2 hrs by fluorescence microscopic method; assay type: ADME, cell-based; conditions: a549, 2 h
[20] = Drug uptake in cytoplasm of human HeLa cells at 5 uM after 2 hrs by fluorescence microscopic method; assay type: ADME, cell-based
[21] = Drug uptake in cytoplasm of human MDA-MB-231 cells at 5 uM after 2 hrs by fluorescence microscopic method; assay type: ADME

Row | SMILES | Drug uptake [6] | Drug uptake [8] | Drug uptake [12] | Drug uptake [16] | Drug uptake [18] | Activity [1] | Activity [2] | Activity [3] | Activity [4] | IC50 [5] [µM] | IC50 [7] [µM] | IC50 [9] [µM] | IC50 [10] [µM] | further results
1 | COc1cccc2c1C(=O)c1c(O)c3c(c(O)c1C2=O)C[C@@](O)(C(=O)CO)C[C@@H]3O[C@H]1C[C@H](NC(=O)CCC(=O)NCCCO[C@H]2CC[C@@]3(C)C(=CC[C@H]4[C@@H]5CC[C@H]([C@H](C)CCCC(C)C)[C@@]5(C)CC[C@@H]43)C2)[C@H](O)[C@H](C)O1 | – | – | – | – | – | inactive | inactive | inactive | inactive | – | – | – | – | –
2 | COc1cccc2c1C(=O)c1c(O)c3c(c(O)c1C2=O)C[C@@](O)(C(=O)CO)C[C@@H]3O[C@H]1C[C@H](NC(=O)CCC(=O)NCCCNC(=O)O[C@H]2CC[C@@]3(C)C(=CC[C@H]4[C@@H]5CC[C@H]([C@H](C)CCCC(C)C)[C@@]5(C)CC[C@@H]43)C2)[C@H](O)[C@H](C)O1 | – | – | – | – | – | inactive | inactive | inactive | inactive | – | – | – | – | –
3 | COc1cccc2c1C(=O)c1c(O)c3c(c(O)c1C2=O)C[C@@](O)(C(=O)COC(=O)CCC(=O)NCCCNC(=O)O[C@H]1CC[C@@]2(C)C(=CC[C@H]4[C@@H]5CC[C@H]([C@H](C)CCCC(C)C)[C@@]5(C)CC[C@@H]42)C1)C[C@@H]3O[C@H]1C[C@H](N)[C@H](O)[C@H](C)O1 | Not Active | Not Active | – | – | – | Active | Active | Active | Active | 8.03 | 8.03 | 9.69 | 16.4 | –

More lines, main results first:

Row | Drug uptake [6] | Drug uptake [8] | Drug uptake [12] | Drug uptake [16] | Drug uptake [18] | SMILES | Activity [1] | Activity [2] | Activity [3] | Activity [4] | IC50 [5] [µM] | IC50 [7] [µM] | IC50 [9] [µM] | IC50 [10] [µM] | further results
4 | Not Active | Not Active | Not Active | Not Active | Not Active | COc1cccc2c1C(=O)c1c(O)c3c(c(O)c1C2=O)C[C@@](O)(C(=O)CO)C[C@@H]3O[C@H]1C[C@H](N)[C@H](O)[C@H](C)O1 [DOXORUBICIN] | – | – | – | – | 7.18 | 11.6 | 4.39 | 14.7 | Drug uptake [11]: Active; Drug uptake [13]: Active; Drug uptake [14]: Active; Drug uptake [15]: Active; Drug uptake [17]: Active
5 | Active | Active | Active | Active | Active | COc1cccc2c1C(=O)c1c(O)c3c(c(O)c1C2=O)C[C@@](O)(C(=O)COC(=O)CCC(=O)NCCCO[C@H]1CC[C@@]2(C)C(=CC[C@H]4[C@@H]5CC[C@H]([C@H](C)CCCC(C)C)[C@@]5(C)CC[C@@H]42)C1)C[C@@H]3O[C@H]1C[C@H](N)[C@H](O)[C@H](C)O1 | Active | Active | Active | Active | 27.9 | 11.2 | 9.94 | 21.6 | Drug uptake [19]: Active; Drug uptake [20]: Active; Drug uptake [21]: Active
